Laboratory results: US7855290B2, “Pyridine derivatives and pyrimidine derivatives (3)” (Eisai R&D Management Co., Ltd., priority 2005, dated 2010)

Columns and labels:
[1] = system: Human umbilical vein endothelial cells (HUVECs); assay: Inhibitory activity against the growth of vascular endothelial cells stimulated with hepatocyte growth factor; type: cell-based; conditions: HUVEC, HGF stimulated, third day, Cell Counting Kit-8, read-out: IC50 (cell proliferation activity)
Description: Human umbilical vein endothelial cells (HUVECs) were isolated according to the reported method (Shin Seikagaku Jikken Koza, “Cell culturing techniques”, p 197-202), and then cultured in a 5% CO2 incubator (37° C.) using EGM-2 medium (purchased from Clonetics) until the cells reached confluency.
HUVECs were suspended in a serum-free medium for endothelial cell culture (SFM, purchased from GIBCO RBL) containing 2% FBS. The cell suspension (2×10^4 cells/ml) was put in a cell culturing 96-well plate (purchased from NUNC, Production No. 167008) at 0.1 ml/well, and then cultured in a 5% CO2 incubator (37° C.) overnight. After the culture, each well was supplied with 50 μl of the test substance diluted with a 2% FBS-containing serum-free medium for endothelial cell culture and 50 μl of HGF (purchased from R&D) diluted at a concentration of 120 ng/ml with a 2% FBS-containing serum-free medium for endothelial cell culture, followed by culturing in a 5% CO2 incubator (37° C.). On the third day after the addition of the test substance, each well was supplied with 10 μl of Cell Counting Kit-8 (purchased from DOJINDO, Production No. 343-07623), and then the plate was incubated in a 5% CO2 incubator (37° C.) for about 2 hours. After the incubation, using a Plate Reader MTP-500 (Corona Electric), the absorbance of each well was determined at a measurement wavelength of 450 nm and a reference wavelength of 660 nm. While defining the absorbance of a well supplied with HGF and no test substance as 100% cell proliferation activity and the absorbance of the well supplied with no test substance and no HGF as 0% cell proliferation activity, the cell proliferation activity ratio (%) was calculated for each cell.

[2] = target: T1, His6-HGFR (HGFR cytoplasmic domain) (Homo sapiens, UniProt P08581); assay: Inhibitory activity against HGFR tyrosine kinase activity (HTRF); type: biochemical; conditions: biotin-poly(GT), ATP, 30° C. 10 min
T1 construct: made in house; host or cells: Sf9 insect cells (Spodoptera frugiperda), baculovirus, pFastBac-HT vector
T1 sequence (P08581 956-1390 limits assumed): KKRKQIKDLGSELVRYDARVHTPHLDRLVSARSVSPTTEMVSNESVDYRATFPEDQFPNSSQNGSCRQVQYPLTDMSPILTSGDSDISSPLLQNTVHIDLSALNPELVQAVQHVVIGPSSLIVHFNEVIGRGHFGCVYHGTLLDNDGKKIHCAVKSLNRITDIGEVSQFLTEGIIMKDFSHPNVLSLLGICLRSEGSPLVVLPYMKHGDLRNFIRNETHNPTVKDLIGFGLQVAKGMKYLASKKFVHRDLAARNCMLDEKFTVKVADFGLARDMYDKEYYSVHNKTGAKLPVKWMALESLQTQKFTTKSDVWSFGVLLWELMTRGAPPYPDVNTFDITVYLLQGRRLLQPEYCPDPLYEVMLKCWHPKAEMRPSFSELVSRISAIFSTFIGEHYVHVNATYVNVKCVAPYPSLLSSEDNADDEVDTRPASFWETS
How it was run: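 Sf9-expressed, Ni-NTA-purified N-terminal His6-tagged HGFR cytoplasmic domain (from Lys974), 30 ng, phosphorylates 250 ng biotin-poly(GT) in Hepes pH 7.4 with MgCl2, MnCl2 and Na3VO4. Reaction started with 4 μM ATP stock, run 10 min at 30° C, stopped with EDTA. Phosphotyrosine is detected by HTRF.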

IC50 [2] [nM]	SMILES	IC50 [1] [nM]
62	CN(C)C1CN(C2CCN(C(=O)Nc3cc(Oc4ccc(NC(=O)C5(C(=O)Nc6ccc(F)cc6)CC5)cc4F)ccn3)CC2)C1 [Example 21, N-[4-({2-[({4-[3-(Dimethylamino)azetidin-1-yl]piperidin-1-yl}carbonyl)amino]pyridin-4-yl}oxy)-3-fluorophenyl]-N′-(4-fluorophenyl)cyclopropane-1,1-dicarboxamide]	24
48	CN1CC(N2CCN(C(=O)Nc3cc(Oc4ccc(NC(=O)C5(C(=O)Nc6ccc(F)cc6)CC5)c(F)c4)ccn3)CC2)C1 [Example 17]	17
60	CN(C)C1CN(C2CCN(C(=O)Nc3cc(Oc4ccc(NC(=O)C5(C(=O)Nc6ccc(F)cc6)CC5)c(F)c4)ccn3)CC2)C1 [Example 14, N-[4-({2-[({4-[3-(Dimethylamino)azetidin-1-yl]piperidin-1-yl}carbonyl)amino]pyridin-4-yl}oxy)-2-fluorophenyl]-N′-(4-fluorophenyl)cyclopropane-1,1-dicarboxamide]	23
46	O=C(Nc1cc(Oc2ccc(NC(=O)C3(C(=O)Nc4ccc(F)cc4)CC3)cc2F)ccn1)N1CCC(N2CCC2)CC1 [Example 11, N-{4-[(2-{[(4-Azetidin-1-ylpiperidin-1-yl)carbonyl]amino}pyridin-4-yl)oxy]-3-fluorophenyl}-N′-(4-fluorophenyl)cyclopropane-1,1-dicarboxamide]	33
51	CN(C)CCN1CCN(C(=O)Nc2cc(Oc3ccc(NC(=O)C4(C(=O)Nc5ccc(F)cc5)CC4)cc3F)ccn2)CC1 [Example 7, N-[4-({2-[({4-[2-(Dimethylamino)ethyl]piperazin-1-yl}carbonyl)amino]pyridin-4-yl}oxy)-3-fluorophenyl]-N′-(4-fluorophenyl)cyclopropane-1,1-dicarboxamide]	18
55	CN(C)CCN1CCN(C(=O)Nc2cc(Oc3ccc(NC(=O)C4(C(=O)Nc5ccc(F)cc5)CC4)c(F)c3)ccn2)CC1 [Example 2, N-[4-({2-[({4-[2-(Dimethylamino)ethyl]piperazin-1-yl}carbonyl)amino]pyridin-4-yl}oxy)-2-fluorophenyl]-N′-(4-fluorophenyl)cyclopropane-1,1-dicarboxamide]	18
66	CN1CCC(N(C)C(=O)Nc2cc(Oc3ccc(NC(=O)C4(C(=O)Nc5ccc(F)cc5)CC4)cc3F)ccn2)CC1 [Example 1, N-(3-Fluoro-4-{[2-({[methyl(1-methylpiperidin-4-yl)amino]carbonyl}amino)pyridin-4-yl]oxy}phenyl)-N′-(4-fluorophenyl)cyclopropane-1.1-dicarboxamide]	4.6
37	CN1CCC(N(C)C(=O)Nc2cc(Oc3ccc(NC(=O)C4(C(=O)Nc5ccc(F)cc5)CC4)cc3)ccn2)CC1 [Example 12]	23
39	CN1CCC(N(C)C(=O)Nc2cc(Oc3ccc(NC(=O)C4(C(=O)Nc5ccc(F)cc5)CC4)c(F)c3)ccn2)CC1 [Example 3, N-(2-Fluoro-4-{[2-({[methyl(1-methylpiperidin-4-yl)amino]carbonyl}amino)pyridin-4-yl]oxy}phenyl)-N′-(4-fluorophenyl)cyclopropane-1,1-dicarboxamide]	13
53	O=C(Nc1cc(Oc2ccc(NC(=O)C3(C(=O)Nc4ccc(F)cc4)CC3)c(F)c2)ccn1)N1CCC(N2CCC2)CC1 [Example 9, N-{4-[(2-{[(4-Azetidin-1-ylpiperidin-1-yl)carbonyl]amino}pyridin-4-yl)oxy]-2-fluorophenyl}-N′-(4-fluorophenyl)cyclopropane-1,1-dicarboxamide]	25
72	O=C(Nc1cc(Oc2ccc(NC(=O)C3(C(=O)Nc4ccc(F)cc4)CC3)cc2)ccn1)N1CCN(CCN2CCC2)CC1 [Example 28, N-(4-{[2-({[4-(2-Azetidin-1-ylethyl)piperazin-1-yl]carbonyl}amino)pyridin-4-yl]oxy}phenyl)-N′-(4-fluorophenyl)cyclopropane-1,1-dicarboxamide]	–
75	CN(C)[C@@H]1CCN(C(=O)Nc2cc(Oc3ccc(NC(=O)C4(C(=O)Nc5ccccc5)CC4)c(F)c3)ccn2)C1 [Example 59, N-(4-{[2-({[(3R)-3-(Dimethylamino)pyrrolidin-1-yl]carbonyl}amino)pyridin-4-yl]oxy}-2-fluorophenyl)-N′-phenylcyclopropane-1,1-dicarboxamide]	–
10	O=C(Nc1cc(Oc2ccc(NC(=O)C3(C(=O)Nc4ccc(F)cc4)CC3)c(F)c2)ccn1)N1CC(CO)C1 [Example 75]	–
180	CCN(CC)CCCNC(=O)Nc1cc(Oc2ccc(NC(=O)C3(C(=O)Nc4ccc(F)cc4)CC3)c(Cl)c2)ccn1 [Example 43, N-[2-Chloro-4-({2-[({[3-(diethylamino)propyl]amino}carbonyl)amino]pyridin-4-yl}oxy)phenyl]-N′-(4-fluorophenyl)cyclopropane-1,1-dicarboxamide]	–
14	COC1CN(C(=O)Nc2cc(Oc3ccc(NC(=O)C4(C(=O)Nc5ccc(F)cc5)CC4)cc3F)ccn2)C1 [Example 79]	–
